Assay results published in article PMC10070186, “Unusual peptide-binding proteins guide pyrroloindoline alkaloid formation in crocagin biosynthesis” (Nature Chemistry, 2023).
“Also recorded” adds a separate entry of the source.

Experiments:
CgnE [1] = experiment: ICP-MS iron binding to CgnE; design: species or system Chondromyces crocatus CM c5; conditions: 5 mM fresh FeCl2, 30 min, PD10 desalting
Experimental: Inductively Couple Plasma-Mass Spectrometry
Experimental solutions were analysed using an Agilent 7500ce fitted with a self-aspire nebuliser tuned for a flow of 0.1 mL min-1 at the Scottish Universities Environmental Research Centre (SUERC).
Samples were initially diluted to a protein concentration of 2 µM in 0.8 M HNO3. CgnB was dialyzed 4 x for 1 h at a dilution of 1 : 5000 in buffer containing 100 mM EDTA prior to analysis. CgnE was incubated with freshly prepared FeCl2 for 30 min (5 mM final FeCl2 concentration) and then subjected to a PD10 desalting column in CgnE buffer before the protein was diluted in HNO3 for analysis. For Fe2+ analysis, flow in the collision cell was set to 2 mL min -1 of H. The metal concentration was calculated by reference to a three -standard calibration line. Each sample value was corrected for procedural blank containing ultrapure water and 0.8 M HNO 3.
CgnB and CgnE sequences were compared with TBLA STN[22] to whole-genome shotgun contigs of taxa listed in (Supplementary table 4). We have retrieved the corresponding genome segments and identified tandem appearances of homologous genes, as well as searched for candidate peptides in their genomic neigh borhood with custom Python and Perl scripts. Phylogenetic trees were constructed with RAxML[23] using the PROTGAMMAJTT model. Bootstrap values were computed using 100 bootstrap […]

CsrA = conditions: in vitro; cited from earlier work
Source text: Their biosynthesis begins with the ribosomal expression of a short gene to yield a precursor peptide that usually consists of an N-terminal ‘leader’ and a C-terminal ‘core’ peptide. While the leader peptide is important for substrate recognition by the enzyme(s) installing class-defining modifications, the core peptide is ultimately converted into the final product and can be extensively modified[17]–[19]. Fe ...

CgnD [2] = experiment: Labeling of CgnD with PMSF (LC-MS); assay type: biochemical, Chondromyces crocatus CM c5; conditions: 10 µM CgnD, 10-fold excess PMSF, room temperature, 10 min
Experimental: All structural images portrayed were rendered in PyMOL (The PyMOL Molecular Graphics System Version 1.8.6.0, Schrödinger, LLC).
Purified, lyophilized 3a/b (see above) was dissolved in 20 mM sodium phosphate pH 7.2 containing 5%
D2O. A similar sample of unmodified CgnA was analyzed for comparison. 1D 1H, 2D {1H,1H} NOESY, TOCSY and DQF-COSY and 2D {13C,1H} HSQC spectra were recorded for each sample on a Bruker AVANCE IIIHD/Ultrashield 600 spectrometer equipped with a TCI cryoprobe using Bruker TopSpin 3.5 software. After excluding peaks from unmodified CgnA in the modified sample, the assignments of the C-terminal residues of the modified CgnA species were made using COSY, TOCSY and inter - residue NOE cross peaks using CCPNMR analysis assign v3. 13C shifts were identified from the HSQC spectra where sensitivity allowed. The majority of the expected resonances were easily identified, but the near-degeneracy of the former tyrosine Hα and Hβ shifts meant that the nOe cross peaks required to identify the stereochemistry at the tyrosine Cβ were not resolved. Indeed, the observation of two separate […]
Phenylmethylsulfonylfluoride (PMSF) can selectively modifying the catalytic serine of serine hydrolases via the formation of a covalent bond with the protein and can therefore be detected even in denaturing LC-MS conditions by a positive mass shift corresponding to the compound[21]. […]

CgnB, CgnC and CgnE = experiment: In vitro processing of CgnA and variants by CgnB, CgnC and CgnE (LC-MS); assay type: biochemical, Chondromyces crocatus CM c5
Experimental: All biochemical reactions were performed in 150 mM NaCl, 10 mM HEPES, 0.5 mM TCEP, pH 7.4. For CgnA–CgnB–CgnC reactions, a mixture of 50 µM CgnA, 10 µM CgnB, 5 µM CgnC, 4 mM ascorbic acid, 2.5 mM FeCl2 and 1 mM 2-oxoglutaric acid was incubated at 37 °C for 2 h. For CgnA–CgnB–CgnC–CgnE reactions, a mixture of 50 µM CgnA, 10 µM CgnB, 5 µM CgnC, 5 µM CgnE, 4 mM ascorbic acid, 2.5 mM FeCl2 and 1 mM 2-oxoglutaric acid was incubated at 37 °C for 2 h. The standard reaction volume was 50 µl. Proteins were precipitated by adding 50% acetonitrile and freezing the mixture at −80 °C for 2 h prior to liquid chromatography and mass spectrometry (LC-MS) analysis.

CgnD [3] = experiment: MST binding to CgnD; design: species or system Chondromyces crocatus CM c5; conditions: microscale thermophoresis
Target sequence in this assay (as listed by the source): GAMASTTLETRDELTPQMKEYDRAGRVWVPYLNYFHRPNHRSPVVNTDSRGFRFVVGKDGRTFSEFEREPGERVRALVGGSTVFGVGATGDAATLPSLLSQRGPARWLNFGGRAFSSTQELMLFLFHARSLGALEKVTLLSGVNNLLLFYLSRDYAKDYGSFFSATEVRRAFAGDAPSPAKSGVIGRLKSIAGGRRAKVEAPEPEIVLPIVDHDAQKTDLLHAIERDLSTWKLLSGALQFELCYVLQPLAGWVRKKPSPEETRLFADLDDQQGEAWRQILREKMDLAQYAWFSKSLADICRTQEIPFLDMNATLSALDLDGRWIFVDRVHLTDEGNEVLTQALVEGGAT

CgnB = experiment: MST binding of CgnA (or leader peptide) to CgnB; design: species or system Chondromyces crocatus CM c5
Experimental: (§1) Supplementary Figure 13: Analysis of protein complexes using SEC and MST. a MST measurements to determine KDs of the protein pairs given. X/Y – Affinity of fluorescently labeled X to Y (titrated). + Z: Z was supplied at a constant, high concentration. […]
(§2) Both samples were incubated at room temperature for 10 min prior to LC-MS analysis.
(§3) Microscale Thermophoresis
(§4) MST binding affinity measurements were performed using a Monolith NT 115 system (Nanotemper Technologies) with MO.Control v1.6 software. Labeling of different proteins was performed using the Monolith Labeling Kit RED-NHS 2nd generation according to the manufacturer’s instructions. For this, a 10 µM dilution of the desired protein was prepared in the supplied labeling buffer NHS (130 mM NaHCO3, 50 mM NaCl, pH 8.2). To yield a 600 μM dye solution, 25 μL DMSO was added to dry powder. For the labeling procedure, 7 μL of the freshly prepared dye solution was mixed with 7 μL of […]

CgnE [4] = experiment: MST binding of CgnA (or leader peptide) to CgnE; design: species or system Chondromyces crocatus CM c5
Experimental: as §1, §2, §3, §4
Target sequence in this assay (as listed by the source): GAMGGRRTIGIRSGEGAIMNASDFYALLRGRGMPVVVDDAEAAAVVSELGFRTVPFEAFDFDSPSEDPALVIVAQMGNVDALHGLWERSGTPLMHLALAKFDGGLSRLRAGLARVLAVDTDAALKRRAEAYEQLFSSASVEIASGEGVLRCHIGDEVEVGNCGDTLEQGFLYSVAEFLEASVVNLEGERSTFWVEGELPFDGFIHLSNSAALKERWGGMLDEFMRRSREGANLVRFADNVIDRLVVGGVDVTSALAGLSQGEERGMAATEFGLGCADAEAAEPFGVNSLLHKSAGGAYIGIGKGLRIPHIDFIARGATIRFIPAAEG

CgnC = experiment: MST binding of CgnA to CgnC; design: species or system Chondromyces crocatus CM c5; conditions: CgnC titrated
CgnC, sequence (as listed by the source): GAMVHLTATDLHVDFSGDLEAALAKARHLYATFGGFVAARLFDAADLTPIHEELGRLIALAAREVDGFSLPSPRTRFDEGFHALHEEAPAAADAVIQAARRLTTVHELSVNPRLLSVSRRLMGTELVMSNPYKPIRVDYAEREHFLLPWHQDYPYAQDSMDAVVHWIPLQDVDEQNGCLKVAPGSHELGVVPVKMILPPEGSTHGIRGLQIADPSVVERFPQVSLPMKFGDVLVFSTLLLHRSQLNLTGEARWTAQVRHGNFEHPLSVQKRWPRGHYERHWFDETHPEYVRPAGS
Experimental: as §1, §2, §3, §4

[Cl][Fe][Cl] [FeCl2]
iron bound to CgnE (CgnE [1]): No iron could be detected

CC[C@H](C)[C@H](NC)C(=O)N[C@@H]1C(=O)N2[C@H](C(=O)O)[C@@H](OC(N)=O)[C@@H]3c4ccccc4N([C@@H]1c1ccc(O)cc1)[C@@H]32 [compound 1, crocagin A]
inhibition of CsrA (CsrA): inhibits

O=S(=O)(F)Cc1ccccc1 [phenylmethylsulfonyl fluoride]
covalent labeling of CgnD (CgnD [2]): inability to label CgnD

Ile-Tyr-Trp [core peptide, three-amino-acid core peptide of CgnA (Ile-Tyr-Trp for crocagin)]
turnover of the core peptide with leader peptide in trans (CgnB, CgnC and CgnE; CgnB–CgnC–CgnE reaction, leader peptide added in trans): marginal

MTMKKTIKQISAGDRSKKGNIYW [CgnA]
binding to CgnD (CgnD [3]): unable to detect binding
CgnA–CgnB interaction relative to CgnA–CgnE (CgnB; MST KD 10.5 vs 1.8 µM): five times weaker
CgnA–CgnB KD relative to SPR value (CgnB; MST vs surface plasmon resonance of ref 24): approximately one order of magnitude lower
Kd (CgnB; MST, Monolith NT 115, RED-NHS label, CgnB titrated, three independent samples, mean ± SD, read-out: KD (affinity) of CgnA–CgnB): 10.5 µM
affinity of CgnA–CgnB in presence of CgnE (CgnB; MST, CgnE 250 µM constant, CgnB titrated): No binding; also recorded: we did not observe binding
processing by CgnB, CgnC and CgnE (product formation/turnover) (CgnB, CgnC and CgnE; 50 µM CgnA, 10 µM CgnB, 5 µM CgnC, 5 µM CgnE, 4 mM ascorbic acid, 2.5 mM FeCl2, 1 mM 2-oxoglutaric acid, pH 7.4, 37 °C, 2 h, LC-MS): formation of a major product with high turnover; also recorded: consumption of CgnA (magenta) and the formation of a major product (+14 Da, blue) as well as minor products (+16 Da, green; +30 Da
product formation with CgnB and CgnC (CgnB, CgnC and CgnE; 50 µM CgnA, 10 µM CgnB, 5 µM CgnC, cofactors, 37 °C, 2 h): two additional product peaks detected when compared to CgnA–CgnE or CgnA–CgnC reactions
product formation with CgnC and CgnE (CgnB, CgnC and CgnE; CgnA + CgnC + CgnE with cofactors): formation of an additional, minor peak with a mass shift of +28 Da
product formation with CgnC and cofactors (CgnB, CgnC and CgnE; CgnA + CgnC + FeCl2, ascorbic acid, α-ketoglutarate): a new peak with a mass suggestive of hydroxylation (+16 Da), but the predominant peak remained unmodified CgnA; also recorded: formation of a minor +16 Da species
product formation with CgnC, no cofactors (CgnB, CgnC and CgnE; CgnA + CgnC without FeCl2, ascorbic acid and α-ketoglutarate): did not lead to observable product formation
product formation without CgnC (CgnB, CgnC and CgnE; CgnA with CgnB, CgnE or both, LC-MS): did not result in any observable product peak
Kd (CgnE [4]; Monolith NT 115, for CgnA: CgnE titrated, three independent samples, mean ± SD, read-out: KD (affinity) to CgnE): 1.8 µM
weaker binding to CgnE than CgnA (CgnE [4]; leader peptide vs CgnA): ~300 times
affinity of CgnA–CgnC (CgnC): No binding; also recorded: not CgnC, were able to bind CgnA
